# In patent US7119073B2, “Peptides and their use as inhibitors of hepatitis C virus ns3 protease” (Istituto Di Ricerche Di Biologia Molecolare P. Angeletti SpA, priority 2001, dated 2006):
# Biological target: T1, NS3 protease domain complexed to a modified form of the NS4A peptide (Pep4AK) (Hepatitis C virus genotype 1b, UniProt P26663)
# T1 construct: NS3 protease domain (residues 1027–1206 of the HCV polyprotein)
# Test: HCV NS3 protease domain/NS4A cofactor peptide assay (Assay B)
# Type: biochemical
# Settings: NS3 protease domain/NS4A cofactor peptide assay; read-out: Assay B (IC50 class)
# T1 sequence (P26663 1027-1206, other chains not shown): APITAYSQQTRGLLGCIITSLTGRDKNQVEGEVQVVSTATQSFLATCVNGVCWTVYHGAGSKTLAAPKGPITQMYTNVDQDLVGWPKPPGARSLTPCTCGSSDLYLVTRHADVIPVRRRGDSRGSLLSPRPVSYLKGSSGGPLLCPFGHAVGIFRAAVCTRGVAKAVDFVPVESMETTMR
row,Structure (SMILES),IC50
1,CC(C)C[C@H](NC(=O)C1Cc2ccccc2N1)C(=O)N[C@@H](CC(F)F)C(=O)NCCc1c(F)cc(C(=O)O)cc1F (stereo partly shown) [Compound 709],< 100 µM
2,CC(C)CC(NC(=O)c1ccccc1-c1ccccc1C(=O)O)C(=O)NC(CC(F)F)C(=O)NCCc1ccc(C(=O)O)cc1Cl (stereo not shown) [Compound 715],< 100 µM
3,CC(C)CC(NC(=O)c1ccccc1-c1ccccc1C(=O)O)C(=O)NC(CS)C(=O)NCCc1ccccc1Cl (stereo not shown) [Compound 716],< 100 µM
4,CC(C)CC(NC(=O)c1ccccc1-c1ccccc1C(=O)O)C(=O)NC(CS)C(=O)NCCc1ccc(Cl)cc1Cl (stereo not shown) [Compound 717],< 100 µM
5,CC(C)CC(NC(=O)c1ccccc1-c1ccccc1C(=O)O)C(=O)NC(CC(F)F)C(=O)NCCc1c(F)cc(C(=O)O)cc1F (stereo not shown) [Compound 718],< 100 µM
6,CCOC(=O)C=Cc1cccc(CCNC(=O)C(CC(F)F)NC(=O)C(CC(C)C)NC(=O)c2ccccc2-c2ccccc2C(=O)O)c1 (stereo not shown) [Compound 719],< 100 µM
7,CC(C)CC(NC(=O)c1ccccc1-c1ccccc1C(=O)O)C(=O)NC(CC(F)F)C(=O)NCCc1cccc(NCC(=O)O)c1 (stereo not shown) [Compound 720],< 100 µM
8,CCOC(=O)CNc1cccc(CCNC(=O)C(CC(F)F)NC(=O)C(CC(C)C)NC(=O)c2ccccc2-c2ccccc2C(=O)O)c1 (stereo not shown) [Compound 721],< 100 µM

# Same assay, conditions: Table 2; NS3 protease domain/Pep4AK; read-out: Assay B
row,IC50,Structure (SMILES)
1,< 100 µM,COc1ccc(CCNC(=O)[C@H](CS)NC(=O)[C@H](CC(C)C)NC(=O)[C@H](CCC(=O)O)NC(=O)CC(C)(C)CC(=O)O)cc1 [Compound 241]
2,< 100 µM,COc1ccc(CCNC(=O)[C@H](CS)NC(=O)[C@H](CC(C)C)NC(=O)[C@H](CCC(=O)O)NC(=O)C(C)(C)CCC(=O)O)cc1 [Compound 243]
3,< 100 µM,CC(C)C[C@H](NC(=O)[C@H](CCC(=O)O)NC(=O)CCCC(=O)O)C(=O)N[C@@H](CS)C(=O)NCCc1ccccc1Cl [Compound 244]
4,< 100 µM,CC(C)C[C@H](NC(=O)[C@H](CCC(=O)O)NC(=O)CC(C)CC(=O)O)C(=O)N[C@@H](CS)C(=O)NCCc1ccccc1Cl (stereo partly shown) [Compound 245]
5,< 100 µM,C=CCNC(=O)N[C@@H](CCC(=O)O)C(=O)N[C@@H](CC(C)C)C(=O)N[C@@H](CS)C(=O)NCCc1ccccc1Cl [Compound 246]
6,< 100 µM,CC(C)C[C@H](NC(=O)[C@H](CCC(=O)O)NC(=O)Nc1ccccc1)C(=O)N[C@@H](CS)C(=O)NCCc1ccccc1Cl [Compound 247]
7,< 100 µM,CC(C)C[C@H](NC(=O)[C@H](CCC(=O)O)NC(=O)NCc1ccccc1)C(=O)N[C@@H](CS)C(=O)NCCc1ccc(Cl)cc1Cl [Compound 248]
8,< 100 µM,CC(C)C[C@H](NC(=O)[C@H](CCC(=O)O)NS(=O)(=O)c1ccccc1)C(=O)N[C@@H](CS)C(=O)NCCc1ccccc1Cl [Compound 249]
9,< 100 µM,COc1ccc(CCNC(=O)[C@H](CS)NC(=O)[C@H](CC(C)C)NC(=O)[C@H](CCC(=O)O)NS(=O)(=O)c2ccccc2)cc1 [Compound 250]
10,< 100 µM,Cc1ccc(S(=O)(=O)N[C@@H](CCC(=O)O)C(=O)N[C@@H](CC(C)C)C(=O)N[C@@H](CS)C(=O)NCCc2ccccc2Cl)cc1 [Compound 251]
11,< 100 µM,CC(C)C[C@H](NC(=O)[C@H](CCC(=O)O)NS(=O)(=O)c1cccs1)C(=O)N[C@@H](CS)C(=O)NCCc1ccccc1Cl [Compound 253]
12,< 100 µM,COc1ccc(CCNC(=O)[C@H](CS)NC(=O)[C@H](CC(C)C)NC(=O)[C@H](CCC(=O)O)NS(C)(=O)=O)cc1 [Compound 254]
13,< 100 µM,COc1ccc(CCNC(=O)[C@H](CS)NC(=O)[C@H](CC(C)C)NC(=O)[C@H](CCC(=O)O)NS(=O)(=O)c2ccc3ccccc3c2)cc1 [Compound 255]
14,< 100 µM,CC(C)C[C@H](NC(=O)[C@H](CCC(=O)O)NS(=O)(=O)Cc1ccccc1)C(=O)N[C@@H](CS)C(=O)NCCc1ccc(Cl)cc1Cl [Compound 256]

# Same assay, conditions: Table 4; NS3 protease domain/Pep4AK; read-out: Assay B
row,IC50,Structure (SMILES)
1,< 100 µM,CC[C@H](NC(=O)[C@H](CCC(=O)O)NC(=O)OCC(C)C)C(=O)N[C@@H](CS)C(=O)NCCc1ccccc1Cl [Compound 401]
2,< 100 µM,CC(C)COC(=O)N[C@@H](CCC(=O)O)C(=O)N[C@@H](CC(F)F)C(=O)N[C@@H](CS)C(=O)NCCc1ccc(C(=O)O)cc1 [Compound 402]
3,< 100 µM,CCC[C@H](NC(=O)[C@H](CCC(=O)O)NC(=O)OCC(C)C)C(=O)N[C@@H](CS)C(=O)NCCc1ccccc1Cl [Compound 405]
4,< 100 µM,CCCC[C@H](NC(=O)[C@H](CCC(=O)O)NC(=O)OCC(C)C)C(=O)N[C@@H](CS)C(=O)NCCc1ccccc1Cl [Compound 407]
5,< 10 µM,CC(C)COC(=O)N[C@@H](CCC(=O)O)C(=O)N[C@@H](CC1CCCCC1)C(=O)N[C@@H](CS)C(=O)NCCc1ccc(C(=O)O)cc1 [Compound 409]
6,< 100 µM,CC(C)COC(=O)N[C@@H](CCC(=O)O)C(=O)N[C@H](C(=O)N[C@@H](CS)C(=O)NCCc1ccccc1Cl)C1CCCC1 [Compound 411]
7,< 100 µM,CC(C)COC(=O)N[C@@H](CCC(=O)O)C(=O)N[C@@H](CCC(=O)O)C(=O)N[C@@H](CS)C(=O)NCCc1ccccc1Cl [Compound 412]
8,< 100 µM,CC(C)COC(=O)N[C@@H](CCC(=O)O)C(=O)N[C@@H](CCC(=O)OCc1ccccc1)C(=O)N[C@@H](CS)C(=O)NCCc1ccccc1Cl [Compound 413]
9,< 100 µM,CC(C)COC(=O)N[C@@H](CCC(=O)O)C(=O)N[C@@H](CCc1ccccc1)C(=O)N[C@@H](CS)C(=O)NCCc1ccccc1Cl [Compound 414]
10,< 100 µM,CC(C)COC(=O)N[C@@H](CCC(=O)O)C(=O)NC1(C(=O)N[C@@H](CS)C(=O)NCCc2ccccc2Cl)Cc2ccccc2C1 [Compound 415]
11,< 100 µM,CC(C)COC(=O)N[C@@H](CCC(=O)O)C(=O)N(C)[C@@H](CC(C)C)C(=O)N[C@@H](CS)C(=O)NCCc1ccccc1Cl [Compound 416]
12,< 100 µM,CC(C)COC(=O)N[C@@H](CCC(=O)O)C(=O)N1Cc2ccccc2C[C@H]1C(=O)N[C@@H](CS)C(=O)NCCc1ccccc1Cl [Compound 417]
13,< 100 µM,CC(C)COC(=O)NC(CCC(=O)O)C(=O)N1CCC1C(=O)NC(CS)C(=O)NCCc1ccccc1Cl (stereo not shown) [Compound 418]
14,< 100 µM,CC(C)COC(=O)N[C@@H](CCC(=O)O)C(=O)N1C=CC[C@H]1C(=O)N[C@@H](CS)C(=O)NCCc1ccccc1Cl [Compound 419]
15,< 10 µM,CC(C)COC(=O)N[C@@H](CCC(=O)O)C(=O)N1C2CCCCC2C[C@H]1C(=O)N[C@@H](CS)C(=O)NCCc1ccccc1Cl (stereo partly shown) [Compound 420]
16,< 100 µM,CC(C)COC(=O)N[C@@H](CCC(=O)O)C(=O)N1c2ccccc2C[C@H]1C(=O)N[C@@H](CC(F)F)C(=O)NCCc1ccc(C(=O)O)cc1Cl [Compound 421]
17,< 100 µM,CC(C)COC(=O)NC(CCC(=O)O)C(=O)N1C(C(=O)NC(CS)C(=O)NCCc2ccccc2Cl)CCC1c1ccccc1 (stereo not shown) [Compound 422]

row,Structure (SMILES),IC50
1,CC(C)COC(=O)N[C@@H](CCC(=O)O)C(=O)N[C@@H](CC1CC1)C(=O)N[C@@H](CS)C(=O)NCCc1ccccc1Cl [Compound 408],< 100 µM
